Data on 89 molecules can be found in a melting point compilation (Tetko et al.; mined from patent text by program, amines drawn as free bases though some values may be those of a salt).

Some results are limits rather than exact numbers.

For `Clc1ccc2nc(Cl)cn2c1`, the melting point was in the range of 155 to 156 °C.

For the molecule `CCCCCCCC(O)CNCCCCCCNCC(O)CCCCCCC` (centres undefined), the melting point was in the range of 122 to 129 °C. To `O=C1NCCCN1Cc1ccc2ccccc2c1` belongs 151 to 155 °C; to `COc1ccc(F)c(NCc2ccccc2)c1`, 56 to 58 °C. To `Cc1ccc(-c2ccc3c(c2)C=C(C(=O)Nc2ccc(CN(C)C4CCOCC4)cc2)CC(C)O3)cc1` (centres undefined) belongs 170 to 171 °C. Under `N#CN1CCC(=C2c3ccccc3Sc3cccnc32)CC1` stands 192 to 193 °C; under `CCc1c(-c2ccc(OCc3ccccc3)cc2)c2cc(C(C)=O)c3ccc(CO)c1n32`, 190 to 191 °C. In turn, `CC(C)(C)c1cc(OCCCCCCc2nnn[nH]2)cc(C(C)(C)C)c1` returned a melting point of 113 to 115 °C. Under `CCOC(=O)c1cn(Cc2ccc(OCc3coc(-c4ccccc4)n3)cc2)nc1-c1cccs1` stands 114 to 115 °C. The molecule `CCCCCc1c(/C=C/C(=O)OC)sc2cc(OC)ccc12` had a melting point of 49 to 50 °C.

`N#Cc1ccc(Oc2ncccc2C(=O)O)cc1` yielded a melting point of 198 to 200 °C. Under `CC(C)(C)NCC(O)COc1ccccc1C#Cc1ccc(C(N)=O)cc1` (centres undefined) stands 199 to 201 °C; under `CCn1c(=O)c(C)cc2cnc(Nc3ccc(N4CCN(C)CC4)cc3)nc21`, 198 to 200 °C; under `Cc1cc(C)c(C2C(=O)NC3(CCN(N(C)C)CC3)C2=O)c(C)c1` (centres undefined), 237 to 241 °C. To `COc1cccc(-c2nc(=O)c3ccccc3s2)n1` belongs 226 °C; to `CS(=O)(=O)c1c(C(=O)O)ccc(Cl)c1Oc1ccccc1`, 231 to 235 °C; to `CCOC(=O)c1cnc2ccn(Cc3ccccc3)n2c1=O`, 172 to 173 °C. Regarding `Cn1ncc2c(C(F)F)cc(-c3ccc(N)c(C#N)c3)nc21`, the melting point is 251 °C.

Regarding `Cc1ccccc1Cn1cc(-c2cn(C3CC(O)C(CO)O3)c(=O)[nH]c2=O)nn1` (centres undefined), the melting point fell in the range of 168 to 170 °C. To `NC(=O)c1nnc2n1-c1ccc(Cl)cc1C(c1ccccc1)=NC2` belongs 285 to 289 °C; to `COC(=O)C1=C(CF)NC(C)=C(C(=O)OC(C)C)C1c1cccc(Cl)c1C` (centres undefined), 73 to 75 °C. Under `Clc1ccc(N2CCN(Cc3cn4cc(Br)ccc4n3)CC2)c(Cl)c1` stands 137 to 138 °C. For `O=C(C(=O)c1ccc(C#Cc2ccccc2)cc1)c1ccc(C#Cc2ccccc2)cc1`, the melting point lay in the range of 168 to 170 °C. To `Fc1ccc(-c2cc(CCC#Cc3ccccn3)on2)cc1` belongs 83 to 84 °C. To `CC(C)C1=NC(c2ccccc2)=NC(c2ccc(F)cc2)C1=CO` (centres undefined) belongs 183 to 184 °C.

On to `CC1=C(Cc2cccc(Br)c2)C(=O)C2C=CC=CC2C1=O` (centres undefined), for which the melting point lay within 108 to 109 °C. To `CN1C(=O)CC[C@]2(C)c3ccc(Sc4nc(-c5ccccc5)nc5ccccc45)cc3CC[C@@H]12` belongs 185 to 193 °C; to `N[C@@H](Cc1ccc(F)cc1)[C@H](O)c1ccc(F)cc1` (racemic), 66 to 67 °C. Molecule `O=C1c2ccccc2C(=O)N1OCc1nc(=O)c(O)c[nH]1` displayed a melting point of 174 to 175 °C. To `COc1ccc(-c2cc(=O)n(CC(C)C)nc2-c2ccc(OC)c(F)c2)cc1` belongs 86.8 to 87.4 °C; to `COC(=O)C(C)(Oc1ccc(-c2ccc(Cl)cc2)cc1)C(F)(F)F` (centres undefined), 87 to 88 °C; to `CSC(=S)NCCNC(C)=O`, 139 to 140 °C.

With `O=C(O)c1cccc(Cl)c1C[PH](=O)CO` (centres undefined), the melting point was in the range of 219 to 220 °C. To `Nc1ccc2ccc(Oc3ccccc3Br)nc2n1` belongs 206 °C. To `COC(=O)/C=C/c1c(OC)cccc1OC` belongs 76 to 78 °C. Under `CN1C(=O)C=C(c2cccc(Cl)c2)C1=O` stands 111 to 113 °C; under `CCOC(=O)c1nc2ccccc2nc1CC`, 53 to 54 °C; under `CCn1ncc2c(NC)c3c(nc21)C(=NC)c1ccccc1CC3`, 233 to 235 °C. `O=C(Nc1ccccc1O)C1CCc2nc[nH]c2C1` (centres undefined) yielded a melting point of 203 to 205 °C. Under `c1ccc(C(OC2CCN(CCCn3cnc4ccccc43)CC2)c2ccccc2)cc1` stands 110 °C; under `C[C@H](c1ccccc1)N1CCO[C@@H](c2ccc(C#N)cc2)C1`, 83.6 °C. To `CC(C(=O)n1c(=O)oc2ccccc21)C(O)CCCl` (centres undefined) belongs 116 to 117 °C; to `CCCCOCCOc1ccc(-c2ccc3c(c2)C=C(C(=O)Nc2ccc(S(=O)Cc4nccn4CCCC(=O)OCC)cc2)CCN3CC(C)C)cc1` (centres undefined), 134 to 136 °C.

Turning to `COc1ccc2cc(-c3nn(C(C)c4oc5ccccc5c(=O)c4-c4cccc(F)c4)c4ncnc(N)c34)ccc2c1` (centres undefined), the melting point is 285 to 287 °C. To `CCOC(=O)C(C)c1ccc2nc(-c3ccccc3)oc2c1` (centres undefined) belongs 46 °C; to `CCCOc1ccc(C(O)CN2CCOCC2)cc1-c1nc2c(CCC)nn(C)c2c(=O)[nH]1` (centres undefined), 104 to 105 °C. To `COC(=O)c1ccc(C(=O)NNC(=O)c2ccc(C(=O)OC)cc2)cc1` belongs 287 to 290 °C; to `Nc1cc(O)cc2cc(-c3ccc(O)cc3)oc12`, 251 to 254 °C.

Regarding `CO/N=C(\C(=O)OCCSc1nc2ccccc2s1)c1csc(NC=O)n1`, the melting point lay in the range of 172 to 173 °C. Under `Cc1cc(C)cc(-c2cc(C(=O)NCCCCCCCc3ccccc3)cc(-c3cc(C)cc(C)c3)c2OCCCC(=O)O)c1` stands 64 to 66 °C.

Consider `O=c1cc[nH]c2cn[nH]c12`, for which the melting point is above 320 °C. Under `O=C1c2ccc(OCCCO)cc2C(=O)c2ccc(OCCCO)cc21` stands 190 °C; under `OC(c1ccc(Cl)cc1)c1ccccc1Cl` (centres undefined), 68 to 70 °C; under `CN(C)CCSc1nc2ccccc2n1CCc1ccccc1`, 38 to 39 °C. Regarding `CCN(CC)CC(=O)OC1CC2(C)C(C(C)=O)CCC2C2CCC3CC(O)C(Br)CC3(C)C12` (centres undefined), the melting point was 149 to 150 °C. To `CCOC(=O)c1sc(-c2ccc(C#N)cc2)nc1CBr` belongs 156 °C; to `CC(=O)NCCCc1c[nH]c(-c2ccc(F)cc2)c1-c1ccncc1`, 218 to 220 °C; to `COc1ccc(Cl)cc1CCC(=O)O`, 91 to 92 °C. Regarding `Cc1cc2c(cc1C)C(c1ccccc1)(C(F)(F)C(F)(F)F)c1cc3c(cc1O2)Oc1cc(C)c(C)cc1C3(c1ccccc1)C(F)(F)C(F)(F)F` (centres undefined), the melting point is 228 to 233 °C. To `CC(C)(CCl)C(=O)N(O)Cc1ccc(Cl)cc1Cl` belongs 103 to 106 °C; to `CCCCC(C#N)(Cn1ccnc1)c1ccc(S(=O)c2ccccc2)cc1` (centres undefined), 55 to 61 °C; to `CC1CCCN(c2cccc3c2C(=N)NC3N)C1` (centres undefined), 104 °C.

Regarding `O=C(O)C1=Cc2cc(Cl)cc(Br)c2OC1C(F)(F)F` (centres undefined), the melting point was 228 to 229 °C. To `Cc1n[nH]cc1-c1cccc2c1nnn2-c1ccnc(NC2CCC(C(=O)N3CCC(O)CC3)CC2)n1` (centres undefined) belongs 190 to 195 °C; to `CCCCOc1cccc2oc(-c3ccccc3)cc(=O)c12`, 96 to 97 °C; to `NC(=O)Cc1c(-c2ccccc2)nn(-c2ccccc2)c1-c1ccccc1`, 123 to 124 °C. In the case of `CC(C(=O)NCC(F)(F)C(F)(F)F)C(=O)NC1C(=O)N(C)c2c(F)cccc2OC1C` (centres undefined), the melting point is 126 to 134 °C. Under `CCOC(=O)C1=C(C)Nc2ncnc(OC(C)C)c2C1c1ccccc1C(F)(F)F` (centres undefined) stands 155 °C; under `C#CCCCCCCCCCCCCCCCCCCCCO`, 64 to 70 °C. Under `OCCOCn1c(Cl)nc2c(Cl)c(Cl)c(Cl)c(Cl)c21` stands 168 to 170 °C. Under `c1ccc(-n2ncc3c2-c2ccccc2C3)cc1` stands 119 to 120 °C; under `Cc1oc(-c2ccc(Cl)cc2)cc1C(=O)Nc1cc(Cl)ccc1-c1nnn[nH]1`, 247 to 255 °C; under `Cc1nnc(-c2ccc3occ(-c4ccc(S(C)=O)c(C)c4)c3c2)o1` (centres undefined), 195 to 196 °C. The molecule `Nc1ccc(-c2noc(-c3cnn4c(C(F)(F)F)cc(-c5ccc(C(F)(F)F)c(Cl)c5)nc34)n2)cn1` displayed a melting point of 234 °C. To `Cc1cccc(C)c1-n1c(C)nnc1S` belongs 189 to 192 °C; to `O=C(O)C=Cc1cccc2nnsc12`, 199 to 202 °C; to `Cc1ccc(S(=O)(=O)N2CCN([C@H](C)[C@](O)(Cn3cncn3)c3ccc(F)cc3F)CC2)cc1`, 81 to 83 °C.

Molecule `COc1ccc(-c2nc(C(=O)NC3CCN(Cc4ccccc4)CC3)sc2-c2ccc(OC)cc2)cc1` returned a melting point of 130 to 131 °C. Under `O=c1ccoc2cc(OCCCCCl)ccc12` stands 75 to 78 °C.

In turn, `COc1ccc2c(c1)cc(C(=O)Nc1ccc3c(ccn3C)c1)n2Cc1cccc(C(F)(F)F)c1` showed a melting point of 176 to 177 °C.

In the case of `O=C1OCCC12Oc1ccccc1C2=O` (centres undefined), the melting point was 111 to 112 °C.

The molecule `O=C(NCc1cc(C(F)(F)F)cc(C(F)(F)F)c1)c1cnc(Cl)nc1Cl` registered a melting point of 144 to 145 °C.

`Cc1nc2cccc(Cn3ccc4cc(Cl)ccc43)c2c(=O)[nH]1` gave a melting point of 251 to 252 °C. To `COc1ccc(Sc2nc(-c3ccccc3)n(Cc3cc4c(cc3Cl)OCO4)c2C=O)cc1` belongs 116 °C; to `COc1ccc(C2=NN(C3CCSCC3)C(=O)[C@H]3CC=CC[C@@H]23)c2c1OC(C)(C)C2` (relative stereo), 163 to 164 °C.

Molecule `Cc1ccc(-c2coc3c(O)c(O)ccc3c2=O)cc1` displayed a melting point of 225 °C. `O=c1nc(-c2cccc(CC(O)=S)n2)sc2ccccc12` came in with a melting point of 258 to 260 °C. In turn, `O=C1C(=O)c2ccccc2C2=C1SCC1(CCN(C(=O)c3ccoc3)CC1)O2` came in with a melting point of 234 to 235 °C. To `CC(C)[C@@H](Cc1ccc(C(C)(C)C)cc1)C(=O)N1C(=O)OC[C@H]1Cc1ccccc1` belongs 124 °C.
